# Measurements taken from patent publication US7858644B2, “EP4 receptor antagonists” (Asterand UK Limited, priority 2003, dated 2010).
# Experiments:
# human EP2 receptor = molecular target: T1, human EP2 receptor (Homo sapiens, UniProt P43116); assay: Binding ability to human EP2 receptor ([3H]PGE2 displacement); settings: read-out: pKi EP2 (converted)
# T1 construct: expressed in transfected cells
# How it was run: (§1)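 Membranes from cells stably transfected with human EP receptor cDNA were incubated to equilibrium with [3H]PGE2 and compound (0.1 to 10 000 nM). Non-specific binding was defined with 10 uM PGE2; bound radioligand was separated by vacuum filtration and counted by scintillation.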
# human EP3 receptor = molecular target: T2, human EP3 receptor (Homo sapiens, UniProt P43115); assay: Binding ability to human EP3 receptor ([3H]PGE2 displacement); settings: membranes from cells stably transfected with human EP receptor cDNA; [3H]PGE2 2.5 nM; Cheng-Prusoff from IC50; read-out: pKi EP3 (converted)
# T2 construct: expressed in transfected cells
# T2 sequence (P43115 1-390): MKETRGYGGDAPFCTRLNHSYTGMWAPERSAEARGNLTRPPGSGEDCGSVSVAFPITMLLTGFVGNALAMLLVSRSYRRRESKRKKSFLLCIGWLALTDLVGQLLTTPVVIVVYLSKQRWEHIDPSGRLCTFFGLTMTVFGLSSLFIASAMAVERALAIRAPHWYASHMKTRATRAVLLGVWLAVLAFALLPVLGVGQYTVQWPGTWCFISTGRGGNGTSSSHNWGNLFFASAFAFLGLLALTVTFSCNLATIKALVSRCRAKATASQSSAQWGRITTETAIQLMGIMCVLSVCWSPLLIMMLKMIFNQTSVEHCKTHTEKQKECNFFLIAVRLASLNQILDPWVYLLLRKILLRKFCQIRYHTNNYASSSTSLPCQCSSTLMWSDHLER
# How it was run: as §1
# human EP4 receptor = molecular target: T3, human EP4 receptor (Homo sapiens, UniProt P35408); assay: Binding ability to human EP4 receptor ([3H]PGE2 displacement); settings: read-out: pKi EP4 (converted)
# T3 construct: expressed in transfected cells
# T3 sequence (P35408 whole entry): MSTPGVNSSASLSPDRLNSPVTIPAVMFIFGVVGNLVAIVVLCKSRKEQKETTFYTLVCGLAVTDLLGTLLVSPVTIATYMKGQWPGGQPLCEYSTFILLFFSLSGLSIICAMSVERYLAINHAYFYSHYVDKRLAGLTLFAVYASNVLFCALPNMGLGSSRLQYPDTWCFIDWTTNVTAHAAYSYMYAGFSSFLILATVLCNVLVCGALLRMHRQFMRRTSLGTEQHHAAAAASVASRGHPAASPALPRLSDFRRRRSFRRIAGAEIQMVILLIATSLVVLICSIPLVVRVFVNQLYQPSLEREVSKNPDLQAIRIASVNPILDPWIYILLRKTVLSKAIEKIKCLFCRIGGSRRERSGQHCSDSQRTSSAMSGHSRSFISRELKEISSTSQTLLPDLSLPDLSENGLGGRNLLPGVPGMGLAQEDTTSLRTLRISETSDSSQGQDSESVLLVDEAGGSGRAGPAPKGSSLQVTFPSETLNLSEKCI
# Description: Membranes were prepared from cells stably transfected with human EP receptor cDNA. In brief, cells were cultured to confluency, scraped from culture flasks, and centrifuged (800 g, 8 minutes, 4° C.). Cells were twice washed in ice cold homogenisation buffer containing 10 mMTris-HCl, 1 mM EDTA. 2Na, 250 mM sucrose, 1 mM PMSF, 0.3 mM indomethacin, pH 7.4, homogenised and re-centrifuged as before. The supernatant was stored on ice and pellets re-homogenised and re-spun. Supernatants were pooled and centrifuged at 40000 g, 10 minutes, 4° C. Resultant membrane pellets were stored at −80° C. until use.
# Incubations were performed at suitable temperatures and for suitable times to allow equilibrium to be reached. Non-specific binding was determined in the presence of 10 uM PGE2. Bound and free radiolabel was separated by vacuum manifold filtration using appropriate wash buffers, and bound radiolabel was determined by scintillation counting. Constituents of each of the buffers are included in table 1 below.
# This approach follows that set out in Kenakin, T. P., Pharmacologic analysis of drug receptor interaction. Raven Press, New York, 2nd edition.
# T1 sequence (P43116 whole entry): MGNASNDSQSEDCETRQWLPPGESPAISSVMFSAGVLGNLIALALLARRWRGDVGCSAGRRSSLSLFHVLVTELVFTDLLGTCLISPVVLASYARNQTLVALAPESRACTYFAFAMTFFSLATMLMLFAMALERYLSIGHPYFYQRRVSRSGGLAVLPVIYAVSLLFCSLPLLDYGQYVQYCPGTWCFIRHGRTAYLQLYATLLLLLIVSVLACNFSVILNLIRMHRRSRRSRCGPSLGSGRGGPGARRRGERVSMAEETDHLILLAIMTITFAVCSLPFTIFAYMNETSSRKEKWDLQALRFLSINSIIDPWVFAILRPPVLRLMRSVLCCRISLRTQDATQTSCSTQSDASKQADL
SMILES,Ki (human EP2 receptor),Ki (human EP3 receptor),Ki (human EP4 receptor)
"Cc1oc(C(=O)O)cc1COc1ccc(-c2ccccc2OC(F)(F)F)cc1 [Compound 115, 5-Methyl-4-(2′-trifluoromethoxy-biphenyl-4-yloxymethyl)-furan-2-carboxylic acid]",> 10 µM,> 10 µM,< 10 µM
"CC(=O)c1cccc(-c2ccc(OCc3cc(C(=O)O)oc3C)cc2)c1 [Compound 117, 4-(3′-Acetyl-biphenyl-4-yloxymethyl)-5-methyl-furan-2-carboxylic acid]",> 10 µM,> 10 µM,< 3.16 µM
"Cc1oc(C(=O)O)cc1COc1ccc(-c2ccc(F)cc2)cc1 [Compound 118, 4-(4′-Fluoro-biphenyl-4-yloxymethyl)-5-methyl-furan-2-carboxylic acid]",> 10 µM,> 10 µM,< 1 µM
"COc1ccc(-c2ccc(OCc3cc(C(=O)NS(=O)(=O)c4ccccc4)oc3C)cc2)[n+]([O-])c1 [Compound 135, N-{4-[4-(5-Methoxy-1-oxy-pyridin-2-yl)-phenoxymethyl]-5-methyl-furan-2-carbonyl}-benzenesulphonamide]",> 10 µM,> 10 µM,< 10 µM
"Cc1oc(C(=O)O)cc1COc1ccc(-c2ncccn2)cc1 [Compound 137, 5-Methyl-4-(4-pyrimidin-2-yl-phenoxymethyl)-furan-2-carboxylic acid]",> 10 µM,> 10 µM,< 10 µM
"Cc1oc(C(=O)NS(=O)(=O)c2ccccc2)cc1COc1ccc(-c2ncccn2)cc1 [Compound 138, N-[5-Methyl-4-(4-pyrimidin-2-yl-phenoxymethyl)-furan-2-carbonyl]-benzenesulphonamide]",> 10 µM,> 10 µM,< 3.16 µM
"COc1ccc(-c2ccc(OCc3cc(C(=O)O)oc3C)cc2)c(OC)c1 [Compound 140, 4-(2′,4′-Dimethoxy-biphenyl-4-yloxymethyl)-5-methyl-furan-2-carboxylic acid]",> 10 µM,> 10 µM,< 3.16 µM
"COc1ccc(-c2ccc(OCc3cc(C(=O)NS(=O)(=O)c4ccccc4)oc3C)cc2)c(OC)c1 [Compound 141, N-[4-(2′,4′-Dimethoxy-biphenyl-4-yloxymethyl)-5-methyl-furan-2-carbonyl]-benzenesulphonamide]",> 10 µM,> 10 µM,< 0.316 µM
"COc1ccc(-c2ccc(OCc3cc(C(=O)NS(=O)(=O)c4c(C)noc4C)oc3C)cc2)c(OC)c1 [Compound 142, 3,5-Dimethyl-isoxazole-4-sulphonic acid [4-(2′,4′-dimethoxy-biphenyl-4-yloxymethyl)-5-methyl-furan-2-carbonyl]-amide]",> 10 µM,> 10 µM,< 0.1 µM
"COc1ccc(-c2ccc(OCc3cc(C(=O)O)oc3C)cc2)c(C)c1 [Compound 144, 4-(4′-Methoxy-2′-methyl-biphenyl-4-yloxymethyl)-5-methyl-furan-2-carboxylic acid]",> 10 µM,> 10 µM,< 1 µM
"Cc1oc(-c2nnn[nH]2)cc1COc1ccc(-c2ccccc2)cc1 [Compound 149, 5-[4-(Biphenyl-4-yloxymethyl)-5-methyl-furan-2-yl]-1H-tetrazole]",> 10 µM,> 10 µM,< 0.1 µM
"Cc1oc(C(=O)O)cc1CSc1ccc(-c2ccc(OC(F)F)cc2)cc1 [Compound 153, 4-(4′-Difluoromethoxy-biphenyl-4-ylsulphanylmethyl)-5-methyl-furan-2-carboxylic acid]",> 10 µM,> 10 µM,< 1 µM
"Cc1oc(C(=O)O)cc1CNc1ccc(-c2ccccc2)cc1 [Compound 160, 4-(Biphenyl-4-ylaminomethyl)-5-methyl-furan-2-carboxylic acid]",> 10 µM,> 10 µM,< 3.16 µM
"Cc1oc(C(=O)O)cc1CN(C)c1ccc(-c2ccc(OC(F)F)cc2)cc1 [Compound 176, 4-{[(4′-Difluoromethoxy-biphenyl-4-yl)-methyl-amino]-methyl}-5-methyl-furan-2-carboxylic acid]",> 10 µM,> 10 µM,< 0.316 µM

# Results, then the compound that gave them:
Ki (human EP2 receptor),Ki (human EP3 receptor),Ki (human EP4 receptor),SMILES
> 3.16 µM,> 1 µM,< 0.0316 µM,"Cc1ccccc1S(=O)(=O)NC(=O)c1cc(CSc2ccc(-c3ccc(OC(F)F)cc3)cc2)c(C)o1 [Compound 154, N-[4-(4′-Difluoromethoxy-biphenyl-4-ylsulphanylmethyl)-5-methyl-furan-2-carbonyl]-2-methyl-benzenesulphonamide]"
> 3.16 µM,> 3.16 µM,< 1 µM,"Cc1oc(C(=O)NS(=O)(=O)c2ccccc2)cc1CSc1ccc(-c2ccc(OC(F)F)cc2)cc1 [Compound 155, N-[4-(4′-Difluoromethoxy-biphenyl-4-ylsulphanylmethyl)-5-methyl-furan-2-carbonyl]-benzenesulphonamide]"
> 10 µM,> 10 µM,< 10 µM,"Cc1ccccc1S(=O)(=O)NC(=O)c1cc(C[S+]([O-])c2ccc(-c3ccc(OC(F)F)cc3)cc2)c(C)o1 (stereo not drawn) [Compound 156, N-[4-(4′-Difluoromethoxy-biphenyl-4-ylsulphinylmethyl)-5-methyl-furan-2-carbonyl]-2-methyl-benzenesulphonamide]"
> 10 µM,> 10 µM,< 10 µM,"Cc1ccccc1S(=O)(=O)NC(=O)c1cc(CS(=O)(=O)c2ccc(-c3ccc(OC(F)F)cc3)cc2)c(C)o1 [Compound 156a, N-[4-(4′-Difluoromethoxy-biphenyl-4-sulfonylmethyl)-5-methyl-furan-2-carbonyl]-2-methyl-benzenesulfonamide]"
> 10 µM,> 10 µM,< 0.316 µM,"COc1ccc(-c2ccc(NCc3cc(C(=O)NS(=O)(=O)c4ccccc4C)oc3C)cc2)nc1 [Compound 167, N-(4-{[4-(5-Methoxy-pyridin-2-yl)-phenylamino]-methyl}-5-methyl-furan-2-carbonyl)-2-methyl-benzenesulphonamide]"
> 10 µM,> 10 µM,< 0.316 µM,"Cc1oc(C(=O)O)cc1CNc1ccc(-c2ccc(OC(F)F)cc2)cc1 [Compound 171, 4-(4′-Difluoromethoxy-biphenyl-4-ylaminomethyl)-5-methyl-furan-2-carboxylic acid]"
> 10 µM,> 10 µM,< 0.01 µM,"Cc1oc(C(=O)NS(=O)(=O)c2ccccc2)cc1CNc1ccc(-c2ccc(OC(F)F)cc2)cc1 [Compound 172, N-{4-[(4′-Difluoromethoxy-biphenyl-4-ylamino)-methyl]-5-methyl-furan-2-carbonyl}-benzenesulphonamide]"
> 10 µM,> 10 µM,< 0.01 µM,"Cc1noc(C)c1S(=O)(=O)NC(=O)c1cc(CNc2ccc(-c3ccc(OC(F)F)cc3)cc2)c(C)o1 [Compound 174, 3,5-Dimethyl-isoxazole-4-sulphonic acid {4-[(4′-difluoromethoxy-biphenyl-4-ylamino)-methyl]-5-methyl-furan-2-carbonyl}-amide]"
> 10 µM,> 10 µM,< 0.0316 µM,"Cc1ccccc1S(=O)(=O)NC(=O)c1cc(CN(C)c2ccc(-c3ccc(OC(F)F)cc3)cc2)c(C)o1 [Compound 177, N-(4-{[(4′-Difluoromethoxy-biphenyl-4-yl)-methyl-amino]-methyl}-5-methyl-furan-2-carbonyl)-2-methyl-benzenesulfonamide]"
